Test results as given in PMC4779111, “A Human Renal Proximal Tubule Cell Line with Stable Organic Anion Transporter 1 and 3 Expression Predictive for Antiviral-Induced Toxicity” (The AAPS Journal, 2016).
Like-named read-outs stand apart in the source and are kept apart here.

Assays:
OAT3 [1] = target: T1, OAT3 (Homo sapiens, UniProt Q8TCC7); experiment: Inhibition of OAT-mediated fluorescein uptake in ciPTEC-OAT3
T1 sequence (Q8TCC7 1-542): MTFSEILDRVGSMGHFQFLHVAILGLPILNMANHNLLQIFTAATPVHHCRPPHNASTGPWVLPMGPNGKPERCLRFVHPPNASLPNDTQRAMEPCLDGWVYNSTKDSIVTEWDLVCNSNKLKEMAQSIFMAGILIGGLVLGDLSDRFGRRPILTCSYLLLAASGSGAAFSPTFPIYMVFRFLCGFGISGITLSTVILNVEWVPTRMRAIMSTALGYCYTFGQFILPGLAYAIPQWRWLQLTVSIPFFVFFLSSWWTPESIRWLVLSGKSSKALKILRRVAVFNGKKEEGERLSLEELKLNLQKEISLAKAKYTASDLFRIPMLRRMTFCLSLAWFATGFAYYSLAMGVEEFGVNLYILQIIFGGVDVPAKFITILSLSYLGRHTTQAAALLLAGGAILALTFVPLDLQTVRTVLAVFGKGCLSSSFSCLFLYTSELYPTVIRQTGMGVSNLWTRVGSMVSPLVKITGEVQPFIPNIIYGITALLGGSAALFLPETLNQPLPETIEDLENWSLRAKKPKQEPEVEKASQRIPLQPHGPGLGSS
Protocol: (§1) All chemicals were obtained from Sigma, unless stated otherwise. Uptake was stopped by washing three times with ice-cold HBSS (4°C).
(§2) Non-linear regression with variable slope constraining the top to 100% was used to fit the data after background subtraction with GraphPad Prism. Statistics was performed by two-way ANOVA (two-tailed, α = 0.05) using GraphPad Prism as well. All data is presented as mean ± SEM of at least three separate experiments (n = 3) performed in triplicate, unless stated otherwise.

OCT2 = OCT2 (Homo sapiens, UniProt O15244); details: ASP+ 1 µM, 60 min, HBSS 37°C; similar IC50 in ciPTEC parent, ciPTEC-OAT1, ciPTEC-OAT3 (p>0.05)
Protocol: Supplementary Figure S1. […] ASP+ uptake (1 […]
µM) by ciPTEC parent, ciPTEC-OAT1 and ciPTEC-OAT3 when co-incubated with OCT2-substrate […]
The lines represent the fit according to a one-site competition model. Values are expressed as ±SEM, (ciPTEC, n=3; ciPTEC- […]
OAT1, n=4; ciPTEC-OAT3, n=2.
(1 picture or pasted object on this page, not shown here)

OAT3 [2] = target: T1, OAT3; details: substrate estrone sulfate, Xenopus-OAT3; read-out: IC50 (literature); cited from earlier work
OAT1 = target: T2, OAT1 (Homo sapiens, UniProt Q4U2R8); experiment: Inhibition of OAT-mediated fluorescein uptake in ciPTEC-OAT1; type: cell-based; parameters: host or cells: ciPTEC (human conditionally immortalized proximal tubule epithelial cells), lentiviral transduction
T2 sequence (Q4U2R8 1-563): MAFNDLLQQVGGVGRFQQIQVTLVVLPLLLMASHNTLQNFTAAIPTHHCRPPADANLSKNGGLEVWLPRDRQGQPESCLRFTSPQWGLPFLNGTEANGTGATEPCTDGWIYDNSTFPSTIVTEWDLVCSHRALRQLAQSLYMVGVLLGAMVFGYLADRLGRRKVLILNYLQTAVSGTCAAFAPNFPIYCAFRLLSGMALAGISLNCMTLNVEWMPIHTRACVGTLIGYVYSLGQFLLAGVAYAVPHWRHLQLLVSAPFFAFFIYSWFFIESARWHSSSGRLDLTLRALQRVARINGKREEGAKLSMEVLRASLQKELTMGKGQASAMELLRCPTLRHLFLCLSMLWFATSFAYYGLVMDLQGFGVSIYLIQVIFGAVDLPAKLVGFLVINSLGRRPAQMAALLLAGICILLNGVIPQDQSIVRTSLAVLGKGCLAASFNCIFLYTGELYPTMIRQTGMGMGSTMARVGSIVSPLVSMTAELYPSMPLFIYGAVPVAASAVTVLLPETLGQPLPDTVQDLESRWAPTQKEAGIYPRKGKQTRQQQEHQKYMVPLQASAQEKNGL
Protocol: as §1, §2

OAT3 [3] = target: T1, OAT3; parameters: host or cells: ciPTEC (human conditionally immortalized proximal tubule epithelial cells), lentiviral transduction; details: substrate sitagliptin, CHO-OAT3; read-out: IC50 (literature); cited from earlier work
ciPTEC-OAT1 = experiment: MTT viability assay, ciPTEC-OAT1; type: cell-based, human
ciPTEC-OAT3 = experiment: MTT viability assay, ciPTEC-OAT3; type: cell-based, human
Protocol: Cell toxicity was analyzed further in presence of MRP and BCRP efflux inhibitors MK571 (5 μM) and KO143 (10 μM).

ciPTEC parent = experiment: MTT viability assay, ciPTEC parent; type: cell-based, human; details: 50 μM (10× Cmax) with MK571 and KO143
Protocol: Briefly, monolayers of ciPTEC (96-wells) were exposed to antivirals in serum-free medium (SFM) on day 6 of maturation.
as §2

[4] = plasma, maximal free plasma concentration, 47 (zidovudine), cited from earlier work
[5] = parameters: method as in PMID 19445515; details: cited from earlier work

Chain of OCT2 (O15244 whole entry): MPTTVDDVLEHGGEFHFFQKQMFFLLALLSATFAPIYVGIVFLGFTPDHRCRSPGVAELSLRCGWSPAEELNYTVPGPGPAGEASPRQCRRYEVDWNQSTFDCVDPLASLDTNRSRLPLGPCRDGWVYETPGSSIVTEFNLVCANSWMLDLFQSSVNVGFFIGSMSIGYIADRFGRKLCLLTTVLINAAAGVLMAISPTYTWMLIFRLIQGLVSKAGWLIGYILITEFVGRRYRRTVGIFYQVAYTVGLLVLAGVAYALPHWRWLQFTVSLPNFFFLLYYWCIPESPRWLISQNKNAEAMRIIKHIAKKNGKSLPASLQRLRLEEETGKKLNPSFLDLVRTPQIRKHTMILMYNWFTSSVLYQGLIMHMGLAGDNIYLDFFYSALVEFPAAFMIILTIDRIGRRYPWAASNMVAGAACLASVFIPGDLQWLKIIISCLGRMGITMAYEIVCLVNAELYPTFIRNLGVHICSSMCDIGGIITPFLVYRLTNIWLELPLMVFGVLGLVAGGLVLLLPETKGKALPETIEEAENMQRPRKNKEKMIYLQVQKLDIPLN

| Structure (SMILES) | IC50 (OAT3 [1]) [µM] | Inhibition of ASP+ uptake at OCT2 (OCT2) | IC50 (OAT3 [2]) [µM] | IC50 at 10 min (OAT1; human, ciPTEC-OAT1 cells (mature monolayers), probe fluorescein (1 μM)) [µM] | IC50 (OAT3 [3]) [µM] | Cell viability in presence of efflux inhibitors (ciPTEC-OAT1; ciPTEC-OAT1, 50 μM (10× Cmax) with MK571 and KO143) | Cell viability (MTT), concentration and time dependence (ciPTEC-OAT1; ciPTEC-OAT1, 24, 48 and 72 h) | Cell viability in presence of efflux inhibitors (ciPTEC-OAT3; ciPTEC-OAT3, 50 μM (10× Cmax) with MK571 and KO143) | Cell viability (MTT), concentration and time dependence (ciPTEC-OAT3; ciPTEC-OAT3, 24, 48 and 72 h) | Cell viability in presence of efflux inhibitors (ciPTEC parent) | Cmax ([4]; first-listed (lower) value per drug, ref 40 (adefovir), 42 (cidofovir), 45 (tenofovir)) [µM] | Cmax ([4]; second-listed (higher) value per drug, ref 41 (adefovir), 43 (cidofovir), 46 (tenofovir)) [µM] | Fraction eliminated via the urine without metabolic alterations [5] [%] | IC50 (OAT1) [µM] |
| --- | --- | --- | --- | --- | --- | --- | --- | --- | --- | --- | --- | --- | --- | --- |
| CN/C(=N/CCSCc1nc[nH]c1C)NC#N [Cimetidine, cimetidine] | 215 ± 162 | significant inhibition | 53 | 654 ± 291 | 79 | – | – | – | – | – | – | – | – | – |
| Cc1cn([C@H]2C[C@H](N=[N+]=[N-])[C@@H](CO)O2)c(=O)[nH]c1=O [Zidovudine, zidovudine] | 21 ± 4 | – | – | – | – | did not affect cell viability | did not affect cell viability | did not affect cell viability | did not affect cell viability | did not affect cell viability | 5.5 | 6.6 | 23 | 14 ± 7 |
